One series addresses JAK2 (Homo sapiens (Human), UniProt O60674). As to the kind of experiment: Biochemical inhibition of JAK2. To be noted: Table 2, range of IC50 value.
Series [1] deals with mouse 4T1 breast cancer cells. The experiment in a line: 4T1 spontaneous (orthotopic) metastasis model, combination with anti-PD-1 antibody. Type of series: in vivo, BALB/c female mice. From the text: A day before cell inoculation, fur on the right flank of BALB/C mice was depilated using hair trimmer. On the following day, the skin area around the injection site was disinfected by mildly swabbing with surgical spirit. To establish allografts, BALB/c female mice (7-weeks age) were implanted orthotopically into the mammary gland with 5×10^6 syngeneic 4T1 cells. Mice were sacrificed when average tumor volume reached 1500 mm^3.
Mice were randomized based on tumor volume (˜50 mm^3) and five mice were allocated per group. Tumor grafts were measured after approximately 2 days of cell inoculation when they become palpable. […] After treatment for 28 days, all mice were sacrificed. 4T1 lung metastasis was determined by counting the tumor nodules through H&E staining. 4T1 solid tumor on primary site was measured by a tumor 3D scanner, TM900 (Peria, Belgium). […] The metastatic nodule was measured by microscopic observation.
BALB/c female mice (7-weeks age) were implanted orthotopically into the mammary gland with 5×10^6 syngeneic 4T1 cells. […] Mice were sacrificed on day 28 and lung metastasis was evaluated by counting nodules.

Series [2] relates to CT26-Luciferase colon cancer cells. As to the kind of experiment: CT26 peritoneal in vivo metastasis model. Particulars: 30 mg/kg/day.
Description: (§4) Compounds of Formula (I) as obtained above were tested in metastasis models using mouse B16F10 melanoma and CT26-Luciferase colon cancer cells. […] Cell line was harvested by trypsinization when they reached 70-80% confluence. A day before cell inoculation, C57BL/6 mice were maintained under pathogen-free conditions according to SPF guideline (room temperature, 40-60% humidity) and housed in the ABMRC at the Yonsei University.
(§5) Mice were randomized, and three mice for B16F10 model and five mice for CT26 peritoneal metastasis model were allocated per group. Lung metastasis was measured after 14 days of cell inoculation. […] Vehicle for oral administration consists of 10% sodium sulphobutylether β-cyclodextrine (SBECD) in 50 mM citrate buffer (pH 3.0). Animals were monitored for mortality and clinical signs (such as illness and behavioral changes) daily throughout the study. In B16F10 model, after mice sacrificed, organs were fixed with 10% of Formalin solution for 1 day. The FFPE block was sliced by 4 μm thinness on coating slides for applying the H&E staining. Then, tumor nodule counting was calculated. CT26 metastasis was determined by measuring luminescence intensity in peritoneal cavity.
The subject of series [3] is mouse B16F10 melanoma cells. As to the kind of experiment: B16F10 lung in vivo metastasis model. Particulars: oral 30 mg/kg/day.
Description: as §4, §5
In another series the test system is 4T1. The experiment in a line: Anti-tumor activity in immunodeficient mice. Type of series: in vivo. Particulars: 30 mg/kg/day.
Series [4] has as its system mouse breast 4T1 cancer cells. As to the kind of experiment: Anti-tumor activity in breast 4T1 syngeneic in vivo cancer model. Particulars: BALB/C mice. On the procedure: A day before cell inoculation, fur on the right flank of BALB/C mice was depilated using hair trimmer. On the following day, the skin area around the injection site was disinfected by mildly swabbing with surgical spirit. To establish allografts, cells were suspended in serum-free media and mixed 1:1 with matrigel to obtain 1×10^6 cells/100 μL. […] Mice were randomized based on tumor volume and six mice were allocated per group. Tumor grafts were measured after approximately 5 days of cell inoculation when they become palpable. […] Tumor growth inhibition (TGI) was calculated as follows: % TGI=[1−(Treatment TVFinal−Treatment TVinitial)/(Control TVFinal−Control TVInitial)]*100

Another series addresses Truncated human Axl (Homo sapiens, UniProt P30530). The experiment in a line: Kinase inhibition assay (inhibition of enzymatic Axl kinase activity). The series is classed as biochemical. On the procedure:
Compounds of Formula (I) as obtained above were assayed to measure their capacity to inhibit Axl kinase. Axl belongs to the recently identified TYRO-3, Axl, MERTK (TAM) receptor tyrosine kinase (RTK) family. […] Upon GAS6 binding, Axl homodimerizes and subsequently induces several downstream signaling pathways involved in cell proliferation, migration, invasion, anti-apoptosis, angiogenesis, metastasis, and therapeutic resistance. Upregulation of Axl has been reported in a wide variety of cancer cell lines as well as in cancer specimens from patients with breast cancer, acute leukemia, colorectal cancer, lung cancer, melanoma, ovarian cancer, or prostate cancer, among others.
Compounds of Formula (I) as obtained above were initially diluted to […] in 100% DMSO (CALBIOCHEM™) for storage and made into kinase buffer solution to create a compound concentration ranging from 1 uM and 10 uM. Serial dilutions of the compounds were dispensed into a 96-well plate (GREINER BIOSCIENCES™) at 6 μL each. Truncated human Axl (CARNA BIOSCIENCES™) were diluted in kinase buffer and added to the compound solutions and pre-incubated for 30 minutes at room temperature. […] The reaction mixture was incubated for 1 hour. Following the incubation, the stop solution made with EDTA, water, and Lance detection buffer ([…]™) were added (12 μL each) to stop phosphorylation.

The subject of the next series is MDA-MB-231 cells. The experiment in a line: Cell viability assay (ATPLite), MDA-MB-231. Particulars: for GI50: 72 hour incubation. The series is classed as cell-based, human. The source says: (§1) Axl is a member of the TAM (TYRO3-Axl-MER) family of receptor tyrosine kinases, which, when activated, can increase tumor cell survival, proliferation, migration and invasion, angiogenesis, and tumor-host interactions. Upon GAS6 binding to Axl, Axl subsequently activates the signaling pathways downstream such as phosphoinositide 3-kinase (PI3K), RAt sarcoma (RAS), and extracellular signal regulated kinase (ERK).
(§2) This cell line was maintained with an Roswell Park Memorial Institute (RPMI) medium (HYCLONE™) containing 10% bovine calf serum (BCS; HYCLONE™) supplemented iron. The cells were seeded at 2×10^4 cells in 96-well culture plates, and serially diluted compounds were then added. After a 72 hour incubation period at 37° C., cell viability was measured using the ATPLite 1 step assay (PERKIN-ELMER™) that is based on the quantification of ATP from viable cells.
Background: In ATP-based viability assays light output follows the ATP content of the culture.

A further series concerns Hs578T cells. The experiment in a line: Cell viability assay (ATPLite), Hs578T. Type of series: cell-based, human. Particulars: 72 hour incubation.
From the text: as §1, §2

For series [5], the system named is MDA-MB-231 breast cancer cell line. As to the kind of experiment: Matrigel invasion assay. Type of series: cell-based, human. Particulars: even at 0.03 μM, compared to R428. Here is the method:
(§3) In order to test whether the compounds of Formula (I) show the effect on inhibition of metastasis, cell migratory and invasive behaviors analyzed using transwell and matrigel invasion assays in MDA-MB-231 breast cancer cell line. […] Cell migration was performed by the transwell assay (BD Biosciences, CA, USA). Briefly, 5×10^4 cells in serum-free RPMI-1640 were seeded on a membrane (8.0-μm pore size) inserted in the wells of a 24-well plate. RPMI-1640 containing 10% FBS was added to the lower chamber of each well. After 24 h, cells in the upper chamber were removed by cotton swab and the cells that had reached the underside of the membrane were fixed and stained with crystal violet (1% in methyl alcohol) for 10 min. The cells located on the underside of the filter (5 fields/filter) were counted. The cell invasion assay was carried out similarly, except that the matrigel (BD Biosciences, CA, USA) was added to each well 6 h before cells were seeded on the membrane. After 48 h, matrigel and any remaining cells in the upper chamber were removed by cotton swabs. Cells on the lower surface of the membrane were fixed and stained as described above. Data are representative of results from three independent fields of stained membrane.

Series [6] has the same test system. The experiment in a line: Transwell migration assay. The series is classed as cell-based, human. To be noted: even at 0.03 μM, compared to R428. On the procedure: as §3
[7] abbreviates: day 15, oral QD 30 mg/kg/day for 14 days.
Where [8] appears, read: Table 2, range of IC50 value, read-out: Axl.

SMILES strings stand for the structures. Where a name gives a salt, the structure may show the parent alone. Read-outs that look alike come from different tables or passages of the source.

Chain of Truncated human Axl (P30530 26-894 limits assumed): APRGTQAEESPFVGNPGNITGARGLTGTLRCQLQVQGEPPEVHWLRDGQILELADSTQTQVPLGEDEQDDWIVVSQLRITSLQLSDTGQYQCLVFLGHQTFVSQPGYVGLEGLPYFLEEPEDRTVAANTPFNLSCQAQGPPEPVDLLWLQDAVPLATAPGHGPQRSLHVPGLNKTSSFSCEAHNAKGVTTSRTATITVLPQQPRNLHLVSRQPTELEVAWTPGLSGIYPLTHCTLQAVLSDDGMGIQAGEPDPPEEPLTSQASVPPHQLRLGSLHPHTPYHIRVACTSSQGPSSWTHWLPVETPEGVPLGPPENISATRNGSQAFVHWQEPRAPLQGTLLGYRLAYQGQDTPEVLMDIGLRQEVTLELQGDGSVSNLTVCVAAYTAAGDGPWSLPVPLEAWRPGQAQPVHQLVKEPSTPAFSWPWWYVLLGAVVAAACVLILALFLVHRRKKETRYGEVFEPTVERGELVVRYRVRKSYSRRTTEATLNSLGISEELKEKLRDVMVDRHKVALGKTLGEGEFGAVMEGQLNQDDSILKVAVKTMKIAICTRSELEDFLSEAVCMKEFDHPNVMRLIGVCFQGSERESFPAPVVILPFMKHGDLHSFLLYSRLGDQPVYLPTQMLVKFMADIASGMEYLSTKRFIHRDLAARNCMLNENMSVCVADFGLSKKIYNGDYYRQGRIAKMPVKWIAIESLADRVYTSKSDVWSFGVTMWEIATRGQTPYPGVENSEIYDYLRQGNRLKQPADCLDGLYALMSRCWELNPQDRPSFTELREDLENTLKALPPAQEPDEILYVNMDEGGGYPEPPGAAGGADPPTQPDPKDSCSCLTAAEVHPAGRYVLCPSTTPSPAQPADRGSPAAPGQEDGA
Chain of JAK2 (O60674 whole entry, species assumed): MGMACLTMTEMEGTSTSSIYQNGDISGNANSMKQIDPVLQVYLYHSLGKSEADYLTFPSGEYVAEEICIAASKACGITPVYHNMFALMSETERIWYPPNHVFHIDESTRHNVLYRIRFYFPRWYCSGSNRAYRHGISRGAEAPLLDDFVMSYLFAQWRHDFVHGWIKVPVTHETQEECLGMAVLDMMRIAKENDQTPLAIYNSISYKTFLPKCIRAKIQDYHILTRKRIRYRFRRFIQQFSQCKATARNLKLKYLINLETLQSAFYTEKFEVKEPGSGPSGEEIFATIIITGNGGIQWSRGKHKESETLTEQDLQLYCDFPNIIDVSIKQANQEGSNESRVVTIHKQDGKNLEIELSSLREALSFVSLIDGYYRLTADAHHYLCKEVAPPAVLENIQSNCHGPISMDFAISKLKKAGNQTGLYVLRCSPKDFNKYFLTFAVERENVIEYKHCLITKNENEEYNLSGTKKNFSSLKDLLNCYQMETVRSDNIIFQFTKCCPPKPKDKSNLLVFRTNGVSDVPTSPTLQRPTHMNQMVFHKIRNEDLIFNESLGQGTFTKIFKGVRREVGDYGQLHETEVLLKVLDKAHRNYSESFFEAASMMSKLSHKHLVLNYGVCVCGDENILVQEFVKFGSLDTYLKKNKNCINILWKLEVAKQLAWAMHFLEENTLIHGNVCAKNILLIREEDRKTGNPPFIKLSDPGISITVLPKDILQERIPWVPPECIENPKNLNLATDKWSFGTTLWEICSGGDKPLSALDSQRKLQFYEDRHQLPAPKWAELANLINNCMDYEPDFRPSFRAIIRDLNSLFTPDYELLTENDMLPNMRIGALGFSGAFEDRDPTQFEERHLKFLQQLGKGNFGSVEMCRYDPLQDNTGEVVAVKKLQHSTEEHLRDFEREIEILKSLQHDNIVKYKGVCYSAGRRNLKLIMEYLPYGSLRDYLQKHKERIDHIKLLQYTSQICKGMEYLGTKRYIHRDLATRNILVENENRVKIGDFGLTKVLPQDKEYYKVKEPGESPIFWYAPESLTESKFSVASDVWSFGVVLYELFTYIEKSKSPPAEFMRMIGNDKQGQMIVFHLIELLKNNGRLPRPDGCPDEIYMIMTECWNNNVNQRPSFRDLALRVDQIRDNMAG

Turning to `CN1CCC(Nc2nc(Nc3ccc(Oc4ccccc4)cc3)c3c(=O)[nH]cc(Br)c3n2)CC1.Cl` [Compound 226, 8-bromo-2-((1-methylpiperidin-4-yl)amino)-4-((4-phenoxyphenyl)amino)pyrido[4,3-d]pyrimidin-5(6H)-one hydrochloride], the IC50 against JAK2 was in the range of 101 to 1000 nM. The “total metastatic burden and number of larger metastases (medium+large, ≥5 mm diameter)” value in series [1] (30 mg/kg/day, 4 weeks) was “significantly suppressed”. Further, the “tumor growth on primary site (mammary fat pad)” value in [1] (4 weeks treatment, no different efficacy between groups) was “inhibition of tumor growth”. Besides, the “metastasis into the lung (tumor nodules)” value in [1] (day 28, compound 226 30 mg/kg/day and/or anti-PD-1 antibody twice/week for 4 weeks) is “significantly decreased”. For the same compound, in series [2] (CT-26 peritoneal metastasis model), the “luminescence intensity in the peritoneal cavity” value is given as “drastically reduced”. Moreover, in series [2] (QD, vehicle mice started to die from day 9), the survival of mice entry is given as “alive during the treatment period”. In addition, in [3] (B16F10 lung and CT-26 peritoneal metastasis models), the “tolerability (clinical signs)” value is listed as “well tolerated”. Also, in series [3] (B16F10 model), the “lung metastasis in gross lung specimens” value is on record as “dramatically inhibited lung metastasis” and the tumor nodules result is “no tumor nodules”.
For orientation: GI50 means the concentration giving 50% growth inhibition. On to `CN1CCC(Nc2nc(Nc3ccc(Oc4cccc(F)c4)cc3)c3c(=O)[nH]cc(Br)c3n2)CC1.Cl` [Compound 238, 8-bromo-4-((4-(3-fluorophenoxy)phenyl)amino)-2-((1-methylpiperidin-4-yl)amino)pyrido[4,3-d]pyrimidin-5(6H)-one hydrochloride], for which the anti-tumor effect entry in the series with 4T1 is on record as “no anti-tumor effect”. Besides, the average tumor volume in series [4] (setting [7]) is recorded as 669±60 mm^3. Besides, the “tumor growth inhibition (TGI)” value in series [4] (setting [7]) turned out to be 59%. For the same compound, the “tolerability (clinical signs, body weight)” value in series [4] (oral QD 30 mg/kg/day) is “well tolerated”. For the same compound, the IC50 at Truncated human Axl (Table 1, read-out: Axl (IC50)) lay in the range of 11 to 100 nM; on Truncated human Axl (setting [8]), 11 to 100 nM; on JAK2, 101 to 1000 nM. Moreover, on Truncated human Axl (result in words), the “inhibition of kinase activity of Axl” value is “strong inhibition”. The GI50 with MDA-MB-231 cells (hydrochloride) and in the series on Hs578T cells (hydrochloride) was 1.1 to 3 µM each time. In addition, in series [5], the “invasion of MDA-MB-231 cells” value is reported as “significantly inhibited”. Further, the “migration of MDA-MB-231 cells” value in series [6] is listed as “significantly inhibited”.
With `CN1CCC(Nc2nc(Nc3ccc(Oc4cccc(F)c4)cc3)c3c(=O)[nH]cc(Br)c3n2)CC1` [Compound 240, 8-bromo-4-((4-(3-fluorophenoxy)phenyl)amino)-2-((1-methylpiperidin-4-yl)amino)pyrido[4,3-d]pyrimidin-5(6H)-one], the IC50 on Truncated human Axl (Table 1, read-out: Axl (IC50)) was 11 to 100 nM; at Truncated human Axl (setting [8]) it was 11 to 100 nM; against JAK2 it was 101 to 1000 nM. Besides, the GI50 in the series with MDA-MB-231 cells and with Hs578T cells was 3.1 to 10 µM each time.
With `CN1CCC(Nc2nc(Nc3ccc(Oc4ccc(F)c(F)c4)cc3)c3c(=O)[nH]cc(Br)c3n2)CC1` [Compound 241, 8-bromo-4-((4-(3,4-difluorophenoxy)phenyl)amino)-2-((1-methylpiperidin-4-yl)amino)pyrido[4,3-d]pyrimidin-5(6H)-one hydrochloride], the IC50 on Truncated human Axl (Table 1, read-out: Axl (IC50)) lay in the range of 11 to 100 nM; on Truncated human Axl (setting [8]), 11 to 100 nM; on JAK2 it was 1000 to 10000 nM. In addition, the GI50 in the series with MDA-MB-231 cells (Homo sapiens, MDA-MB-231, 72 h) lay within 3.1 to 10 µM; in the series on Hs578T cells (Homo sapiens, Hs-578T, 72 h), 3.1 to 10 µM.
Regarding `CCc1nc(C(N)=O)c(Nc2ccc(N3CCC(N4CCN(C)CC4)CC3)c(OC)c2)nc1NC1CCOCC1` [ASP2215, gilteritinib, reference compound], the IC50 against JAK2 was in the range of 11 to 100 nM. The GI50 lay in the range of 3.1 to 10 µM in the series with MDA-MB-231 cells (Homo sapiens, MDA-MB-231, 72 h) and 3.1 to 10 µM with Hs578T cells (Homo sapiens, Hs-578T, 72 h).
`CN1CCC(Nc2nc(Nc3ccc(OC4CCCC4)cc3)c3c(=O)[nH]cc(Br)c3n2)CC1.Cl` [Compound 237, 8-bromo-4-((4-(cyclopentyloxy)phenyl)amino)-2-((1-methylpiperidin-4-yl)amino)pyrido[4,3-d]pyrimidin-5(6H)-one hydrochloride]: the IC50 on Truncated human Axl (Table 1, read-out: Axl (IC50)) is 101 to 1000 nM. In addition, the GI50 in the series with MDA-MB-231 cells (Homo sapiens, MDA-MB-231, 72 h) was in the range of 1.1 to 3 µM; with Hs578T cells (Homo sapiens, Hs-578T, 72 h), 0.1 to 1 µM. The “inhibition level in Axl-harboring breast cancer cell lines” value in the series with MDA-MB-231 cells (compared with references ASP2215 and R428, MDA-MB-231 and Hs578T) was “greater than those exhibited by reference ASP2215 and R428”.
As for `CN1CCC(Nc2nc(Nc3ccc(OC4CCCCC4)cc3)c3c(=O)[nH]cc(Br)c3n2)CC1` [Compound 233, 8-bromo-4-((4-(cyclohexyloxy)phenyl)amino)-2-((1-methylpiperidin-4-yl)amino)pyrido[4,3-d]pyrimidin-5(6H)-one hydrochloride], the IC50 lay within 101 to 1000 nM on Truncated human Axl (Table 1, read-out: Axl (IC50)); 101 to 1000 nM at Truncated human Axl (setting [8]); 101 to 1000 nM at JAK2. The GI50 with MDA-MB-231 cells (hydrochloride) fell in the range of 3.1 to 10 µM; with Hs578T cells (hydrochloride), 1.1 to 3 µM.
`Nc1nc(Nc2ccc3c(c2)CC[C@@H](N2CCCC2)CC3)nn1-c1cc2c(nn1)-c1ccccc1CCC2` [Compound R428, reference compound]: the IC50 against JAK2 fell in the range of 101 to 1000 nM. In addition, the GI50 lay within 11 to 30 µM with MDA-MB-231 cells (Homo sapiens, MDA-MB-231, 72 h) and 3.1 to 10 µM with Hs578T cells (Homo sapiens, Hs-578T, 72 h).

The values are drawn from patent US12350272B2, “Pyridopyrimidinone derivatives for use as AXL inhibitors” (OSCOTEC INC., priority 2018, dated 2025).
